Results on two molecules are retold here after patent publication US11161830B2, “4-pyridone compound or salt thereof, and pharmaceutical composition and formulation including same” (priority 2017, dated 2021).

“And” between values parts separate entries of the source, which are not always exact repeats. Identical values can stand only once. Like-named read-outs stand apart in the source and are kept apart here.

One assay concerns HBV genotype C. Kind of assay: Test Example 3-2: in vivo efficacy study in PXB mouse (chimeric mouse with human hepatocytes), first and second study. The arrangement: species or system hepatitis B virus. Conditions: first study, individual mice. As for the experimental part: An in vivo efficacy study with a PXB mouse (a chimeric mouse with human hepatocytes) was carried out in PhenixBio Co., Ltd. 19-Week-or-more-old male mice having body weights of 10.5 g or more after the elapse of 13 weeks or more from the infection with HBV genotype C were allocated into the respective groups and used. The studies were carried out twice, and a 21-day administration withdrawal period was provided between the first study and the second study.
The first administration day in the first study was taken as day 0, and the compound of Example 6-5 was orally administered at 1 mg/kg, 3 mg/kg, 10 mg/kg, and 30 mg/kg twice a day, or 0.5% methylcellulose (vehicle) was orally administered once a day for 14 days. Before administration on day 0, day 3, Day 7, and day 10, and on day 14, the blood was collected from the orbital venous plexus under anesthesia with isoflurane.
The first administration day in the second study was taken as day 35, and the compounds of Examples 19-2 and 20-2 were each orally administered at 3 mg/kg twice a day, or 0.5% methylcellulose (vehicle) was orally administered once a day for 14 days. Before administration on day 35, day 38, day 42, and day 45, the blood was collected from the orbital venous plexus under anesthesia with isoflurane. On day 49, the blood was collected from the heart under anesthesia with isoflurane.
The serum was separated from the collected blood and purified with a QIAamp (registered trademark) DNA Blood Mini Kit (manufactured by QIAGEN). The amount of HBV-DNA in the obtained solution was absolutely quantified by a real-time PCR method. In addition, the amount of HBsAg in the serum was absolutely quantified by chemiluminescent enzyme immunoassay using Lumipulse (registered trademark) HBsAg-HQ (manufactured by Fujirebio Inc.).

The next assay relates to HBV. Kind of assay: Test Example 1-1: anti-HBV assay in HepG2.2.15 cells (test solution 200 μL/well). Type of assay: cell-based, hepatitis B virus. Conditions: Hepatitis B virus, culture supernatant. A digest of the protocol: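 HepG2.2.15 cells (HBV genome, persistent virus production) pre-cultured 2 days, then treated with compound in 0.25% DMSO medium for 4 days, refreshed for 3 more days at 37 °C. Supernatant HBV-DNA measured by real-time PCR and HBsAg by chemiluminescent immunoassay. IC50 = 50% reduction versus DMSO control, linear regression on log concentration.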

[1] abbreviates: orally 1 mg/kg twice a day, Day 0 (before administration), 1 mg/kg.
Where [2] appears, read: orally 1 mg/kg twice a day, Day 3, 1 mg/kg.
[3] abbreviates: orally 1 mg/kg twice a day, Day 7, 1 mg/kg.
Setting [4] is: orally 1 mg/kg twice a day, Day 14, 1 mg/kg.
Setting [5] is: orally 3 mg/kg twice a day, Day 0 (before administration), 3 mg/kg.
[6] abbreviates: orally 3 mg/kg twice a day, Day 3, 3 mg/kg.
Setting [7] is: orally 3 mg/kg twice a day, Day 7, 3 mg/kg.
The mark [8] stands for this setting: orally 3 mg/kg twice a day, Day 10, 3 mg/kg.
[9] abbreviates: orally 3 mg/kg twice a day, Day 14, 3 mg/kg.
[10] abbreviates: orally 10 mg/kg twice a day, Day 0 (before administration), 10 mg/kg.
Where [11] appears, read: orally 10 mg/kg twice a day, Day 3, 10 mg/kg.
The mark [12] stands for this setting: orally 10 mg/kg twice a day, Day 7, 10 mg/kg.
[13] abbreviates: orally 10 mg/kg twice a day, Day 10, 10 mg/kg.
Where [14] appears, read: orally 10 mg/kg twice a day, Day 14, 10 mg/kg.
Setting [15] is: orally 30 mg/kg twice a day, Day 0 (before administration), 30 mg/kg.
[16] abbreviates: orally 30 mg/kg twice a day, Day 3, 30 mg/kg.
The mark [17] stands for this setting: orally 30 mg/kg twice a day, Day 7, 30 mg/kg.
The mark [18] stands for this setting: orally 30 mg/kg twice a day, Day 10, 30 mg/kg.
Setting [19] is: orally 30 mg/kg twice a day, Day 14, 30 mg/kg.

`COCCN1CCN(c2nc3ccc(-n4cc(C(=O)O)c(=O)cc4-c4ccc(N5CCCC5)c(Cl)c4)cc3s2)CC1` [Example 6-5, 6-(3-chloro-4-(pyrrolidin-1-yl)phenyl)-1-(2-(4-(2-methoxyethyl)piperazine-1-yl)benzo[d]thiazol-6-yl)-4-oxo-1,4-dihydropyridine-3-carboxylic acid]: the HBV-DNA in blood is 8.4E+08 copies/mL and 1.1E+09 copies/mL with HBV genotype C (setting [1]); 1.6E+09 copies/mL and 7.7E+08 copies/mL with HBV genotype C (setting [2]); 1.4E+09 copies/mL and 1.1E+09 copies/mL in the assay on HBV genotype C (setting [3]); 1.2E+09 copies/mL in the assay on HBV genotype C (orally 1 mg/kg twice a day, Day 10); 6.8E+08 copies/mL and 6.4E+08 copies/mL in the assay with HBV genotype C (setting [4]); 1.8E+09 copies/mL and 9.8E+08 copies/mL with HBV genotype C (setting [5]). The HBV-DNA in blood in the assay with HBV genotype C (setting [6]) is 5.7E+08 copies/mL and 5.6E+08 copies/mL; in the assay on HBV genotype C (setting [7]), 4.9E+08 copies/mL and 4.0E+08 copies/mL; in the assay with HBV genotype C (setting [8]), 5.7E+08 copies/mL and 6.2E+08 copies/mL; with HBV genotype C (setting [9]), 6.1E+08 copies/mL and 5.2E+08 copies/mL; in the assay with HBV genotype C (setting [10]), 1.1E+09 copies/mL and 1.2E+09 copies/mL; in the assay on HBV genotype C (setting [11]) it was 8.0E+08 copies/mL and 4.5E+08 copies/mL. Besides, the HBV-DNA in blood in the assay with HBV genotype C (setting [12]) is 3.3E+08 copies/mL and 4.0E+08 copies/mL; with HBV genotype C (setting [13]) it was 7.3E+08 copies/mL and 3.9E+08 copies/mL; in the assay with HBV genotype C (setting [14]) it was 4.9E+08 copies/mL and 3.6E+08 copies/mL; in the assay on HBV genotype C (setting [15]), 1.6E+09 copies/mL and 1.2E+09 copies/mL; with HBV genotype C (setting [16]), 8.3E+08 copies/mL and 4.4E+08 copies/mL; in the assay with HBV genotype C (setting [17]), 7.5E+08 copies/mL and 3.7E+08 copies/mL. The HBV-DNA in blood was 8.0E+08 copies/mL and 4.9E+08 copies/mL in the assay on HBV genotype C (setting [18]); 6.1E+08 copies/mL and 2.6E+08 copies/mL with HBV genotype C (setting [19]). Besides, the HBsAg in serum with HBV genotype C (setting [1]) is 1,910 IU/mL and 2,498 IU/mL; in the assay on HBV genotype C (setting [2]), 2,288 IU/mL and 2,694 IU/mL; with HBV genotype C (setting [3]) it was 2,444 IU/mL and 2,663 IU/mL; in the assay with HBV genotype C (orally 1 mg/kg twice a day, Day 10, 1 mg/kg), 1,947 IU/mL and 2,431 IU/mL; in the assay with HBV genotype C (setting [4]), 1,777 IU/mL and 2,344 IU/mL; in the assay with HBV genotype C (setting [5]), 2,722 IU/mL and 2,314 IU/mL. Besides, the HBsAg in serum with HBV genotype C (setting [6]) is 972 IU/mL and 1,059 IU/mL; with HBV genotype C (setting [7]) it was 859 IU/mL and 876 IU/mL; in the assay on HBV genotype C (setting [8]), 959 IU/mL and 1,025 IU/mL; with HBV genotype C (setting [9]), 1,012 IU/mL and 837 IU/mL; in the assay on HBV genotype C (setting [10]), 2,500 IU/mL and 2,409 IU/mL; with HBV genotype C (setting [11]) it was 595 IU/mL and 421 IU/mL. The HBsAg in serum in the assay on HBV genotype C (setting [12]) was 445 IU/mL and 366 IU/mL; with HBV genotype C (setting [13]), 394 IU/mL and 329 IU/mL; in the assay with HBV genotype C (setting [14]), 368 IU/mL and 398 IU/mL; with HBV genotype C (setting [15]) it was 2,291 IU/mL and 2,328 IU/mL; in the assay on HBV genotype C (setting [16]) it was 673 IU/mL and 592 IU/mL; in the assay on HBV genotype C (setting [17]), 458 IU/mL and 370 IU/mL. Further, the HBsAg in serum in the assay with HBV genotype C (setting [18]) is 359 IU/mL and 392 IU/mL; in the assay on HBV genotype C (setting [19]) it was 408 IU/mL and 268 IU/mL.

Turning to `COC[C@H]1CCCN1c1nc2ccc(-n3cc(C(=O)O)c(=O)cc3-c3ccc(N4CC[C@@H](OC)C4)cc3)cc2s1` [Example 10-2, 1-(2-((R)-2-(methoxymethyl)pyrrolidin-1-yl)benzo[d]thiazol-6-yl)-6-(4-((R)-3-methoxypyrrolidin-1-yl)phenyl)-4-oxo-1,4-dihydropyridine-3-carboxylic acid], the IC50 is 5.2 nM in the assay on HBV (read-out: IC50 HBV-DNA) and 2.7 nM in the assay with HBV (read-out: IC50 HBsAg).
